These results are taken from patent US20260283977A1, “ADIPOCYTE GROWTH INHIBITOR” (WATANABE OYSTER LABORATORY CO., LTD., priority 2023, published 2026).

In one assay the test system is PI3 kinase 100α. The assay is described as follows: Western blotting, PI3 kinase 100α level in 3T3-L1 adipocytes. Format: cell-based, mouse. The settings on record: DHMBA 10 μM, day 2 to 4 of differentiation; FIG. 7. The method, then:
(§1) 3T3-L1 preadipocytes (1×10^6 cells/100 mm dish used, in 10 ml of culture fluid) were cultured for three days, at which point they reached sub-confluence, in DMEM containing 10% BCS and 1% P/S. Then, the cells were cultured for two days in a DMEM differentiation culture fluid containing 10% FBS, 1% P/S, 0.5 mM IBMX, and 1 μM dexamethasone. […] After the culture, the culture dish was washed three times with cold PBS (10 ml) to eliminate floating cells and dead cells, and adhering cells were scraped using a cell lysis solution containing protease and protein phosphatase inhibitors (Roche Diagnostics, Indianapolis, IN, USA). Next, the cell lysates were centrifuged for 10 minutes at 17,000×g at 4° C. The concentration of proteins in the supernatant was quantified using Bio-Rad Protein Assay Dye (Bio-Rad Laboratories, Inc., Hercules, CA, USA) with bovine serum albumin as a standard. The extracted protein samples were stored at −80° C. until they were used. […]
(§2) After the incubation, the PVDF membrane was incubated at room temperature for 60 minutes in a horseradish peroxidase-conjugated secondary antibody (Santa Cruz Biotechnology, Inc., mouse sc-2005 or rabbit sc-2305; 1:1,000 dilution). Protein bands transferred to the PVDF membrane were detected on an X-ray film using a chemiluminescent substrate (catalog No. 34577, Thermo Scientific, Rockford, IL, USA). […]
Background: A western blot detects proteins with antibodies after separation by electrophoresis.

The test system of another assay is 3T3-L1 preadipocytes. Nature of the assay: Number of cells in the differentiation process of 3T3-L1 preadipocytes. Type of assay: cell-based, mouse. Conditions: DHMBA 1 or 10 μM. The method, then:
After the culture, adhering cells were separated from each well by adding an aseptic solution containing 0.05% trypsin and EDTA (0.1 ml per well) in PBS (Thermo Fisher Scientific, Waltham, MA, USA) not containing Ca^2+/Mg^2+ and incubating the cells for two minutes. Afterward, 0.9 ml of DMEM containing 10% FBS was added to each well to prepare cell suspensions. In order to measure the number of living cells, a medium (0.1 ml) containing suspension cells was mixed with 0.1 ml of 0.5% trypan blue staining solution. The living cells were counted under a microscope (Olympus MTV-3) using a cell counter (Line Seiki H-102P, Tokyo, Japan) and a hemocytometer (Sigma-Aldrich, St. Louis, Missouri). Two counts were averaged in each measurement. The number of cells was shown as the number per well of a culture plate. […]
First, to quantify the effect of DHMBA on the number of cells, a vehicle (1% ethanol as the final concentration) or DHMBA (1 or 10 μM) was added to the differentiation-inducing culture fluid on day 0 of differentiation starting culture or after two days. After zero to two days of the differentiation culture or after two to four days of the culture, the number of cells adhered to a culture dish was measured as described in the previous section.

The subject of assay [1] is metastatic prostate cancer cells. The settings on record: earlier report, no details given; cited from earlier work.
The test system of another assay is NF-κB p65. The assay is described as follows: Western blotting, NF-κB p65 level in 3T3-L1 adipocytes. Conditions: DHMBA 10 μM, day 2 to 4 of differentiation; FIG. 7. Format: cell-based, mouse. The method, then: as §1, §2
A further assay concerns Akt. Nature of the assay: Western blotting, Akt level in 3T3-L1 adipocytes. Type of assay: cell-based, mouse. Conditions: DHMBA 10 μM, day 2 to 4 of differentiation; FIG. 7. The method, then:
as §1, §2

Structures are written as SMILES.

As for `COc1c(O)cc(CO)cc1O` [DHMBA, 3,5-dihydroxy-4-methoxybenzyl alcohol], the “PI3 kinase 100α protein level” value in the assay on PI3 kinase 100α is “reduction”. In addition, the “Number of cells, differentiation day 2 to 4” value in the assay on 3T3-L1 preadipocytes (culture fluid containing insulin (10 μg/ml), another two days, FIG. 3C) is given as “not varied”. In the assay on 3T3-L1 preadipocytes (differentiation-inducing culture fluid (IBMX, dexamethasone, insulin), two days, FIG. 3B), the “Number of cells, differentiation day 0 to 2” value is listed as “not varied”. For the same compound, the “Proliferation of metastatic prostate cancer cells” value in assay [1] is recorded as “suppress the proliferation”. In the assay on NF-κB p65, the “NF-κB p65 protein level” value is “reduced”. Also, the Akt protein level result in the assay on Akt is “reduction”.
